Values belong to the compound of their own block, whether it stands above or below them.
Assay: Stability studies (stress testing, accelerated test for 10 days) on crystal forms and free base
Assay type: physicochemical
Protocol: Detection conditions: Chromatographic column: Waters C18; Mobile phase A: acetonitrile-mobile phase B (70:30); Mobile phase B: 0.05 mol/l ammonium dihydrogen phosphate solution (pH=7.3); Column temperature: 30° C.; Detection wavelength: 247 nm.
Detection method: High performance liquid chromatography method, Pharmacopoeia of the People's Republic of China, Part II Appendix VD

[1] = Day 10, relative humidity 92.5%
[2] = Day 10, stress condition not given

Content (%) (40° C., Day 5): 98.96%
Content (%) (40° C., Day 10): 98.59%
Content (%) (60° C., Day 5): 96.77%
Content (%) (60° C., Day 10): 95.15%
Content (%) (Day 0): 99.37%
Maximum single impurity (%) (Day 0): 0.45 (RRT: 1.11) %
Maximum single impurity (%) (Day 5, 40° C.): 0.46 (RRT: 1.11) %
Maximum single impurity (%) (Day 5, 60° C.): 2.14 (RRT: 0.44) %
Maximum single impurity (%) (Day 10, 40° C.): 0.71 (RRT: 0.43) %
Maximum single impurity (%) (Day 10, 60° C.): 2.88 (RRT: 0.43) %
Stability (result in words) (under the condition of 60° C.): obviously degraded
Compound: CCOc1cc2ncnc(Nc3ccc(F)c(Cl)c3)c2cc1NC(=O)/C=C/CN(C)C [Free base, (E)-N-(4-((3-chloro-4-fluorophenyl)amino)-7-ethoxyquinazolin-6-yl)-4-(dimethylamino)but-2-enamide, reference compound]

Maximum single impurity (%) (Day 0): 0.017 (RRT: 1.22) %
Purity (%) (Day 0): 99.97%
Total impurities (%) (Day 0): 0.03%
Water (%) (Day 0): 4.4%
Maximum single impurity (%) (Day 5, 40° C.): 0.020 (RRT: 1.22) %
Purity (%) (Day 5, 40° C.): 99.97%
Total impurities (%) (Day 5, 40° C.): 0.03%
Water (%) (Day 5, 40° C.): 4.4%
Maximum single impurity (%) (Day 5, 60° C.): 0.151 (RRT: 0.93) %
Purity (%) (Day 5, 60° C.): 99.83%
Total impurities (%) (Day 5, 60° C.): 0.17%
Water (%) (Day 5, 60° C.): 4.3%
Maximum single impurity (%) (Day 5, light irradiation): 0.032 (RRT: 1.17) %
Purity (%) (Day 5, light irradiation): 99.94%
Total impurities (%) (Day 5, light irradiation): 0.06%
Water (%) (Day 5, light irradiation): 4.4%
Maximum single impurity (%) (Day 5, relative humidity 75%): 0.019 (RRT: 1.22) %
Purity (%) (Day 5, relative humidity 75%): 99.97%
Total impurities (%) (Day 5, relative humidity 75%): 0.03%
Water (%) (Day 5, relative humidity 75%): 4.4%
Maximum single impurity (%) (Day 5, relative humidity 92.5%): 0.018 (RRT: 1.22) %
Purity (%) (Day 5, relative humidity 92.5%): 99.97%
Total impurities (%) (Day 5, relative humidity 92.5%): 0.03%
Water (%) (Day 5, relative humidity 92.5%): 4.5%
Maximum single impurity (%) (Day 10, 40° C.): 0.020 (RRT: 122) %
Purity (%) (Day 10, 40° C.): 99.98%
Total impurities (%) (Day 10, 40° C.): 0.02%
Water (%) (Day 10, 40° C.): 4.5%
Maximum single impurity (%) (Day 10, 60° C.): 0.020 (RRT: 1.22) %
Purity (%) (Day 10, 60° C.): 99.94%
Total impurities (%) (Day 10, 60° C.): 0.06%
Water (%) (Day 10, 60° C.): 4.4%
Maximum single impurity (%) (Day 10, light irradiation): 0.177 (RRT: 0.93) %
Purity (%) (Day 10, light irradiation): 99.80%
Total impurities (%) (Day 10, light irradiation): 0.20%
Water (%) (Day 10, light irradiation): 4.5%
Maximum single impurity (%) (Day 10, relative humidity 75%): 0.022 (RRT: 1.22) %
Purity (%) (Day 10, relative humidity 75%): 99.98%
Total impurities (%) (Day 10, relative humidity 75%): 0.02%
Water (%) (Day 10, relative humidity 75%): 4.4%
Maximum single impurity (%) [1]: 0.021 (RRT: 1.22) %
Purity (%) [1]: 99.98%
Total impurities (%) [1]: 0.02%
Water (%) [1]: 4.5%
Maximum single impurity (%) [2]: 0.022 (RRT: 1.22) %
Purity (%) [2]: 99.98%
Total impurities (%) [2]: 0.02%
Water (%) [2]: 4.3%
Compound: CCOc1cc2ncnc(Nc3ccc(F)c(Cl)c3)c2cc1NC(=O)/C=C/CN(C)C.Cc1ccc(S(=O)(=O)O)cc1.Cc1ccc(S(=O)(=O)O)cc1.O.O [crystal form β, (E)-N-(4-((3-chloro-4-fluorophenyl)amino)-7-ethoxyquinazolin-6-yl)-4-(dimethylamino)but-2-enamide (Neptinib) di-p-methylbenzene sulfonate 2 hydrate]

Maximum single impurity (%) (Day 0): 0.021 (RRT: 1.22) %
Purity (%) (Day 0): 99.98%
Total impurities (%) (Day 0): 0.02%
Water (%) (Day 0): 3.3%
Maximum single impurity (%) (Day 5, 40° C.): 0.022 (RRT: 1.22) %
Purity (%) (Day 5, 40° C.): 99.98%
Total impurities (%) (Day 5, 40° C.): 0.02%
Water (%) (Day 5, 40° C.): 3.3%
Maximum single impurity (%) (Day 5, 60° C.): 0.022 (RRT: 1.22) %
Purity (%) (Day 5, 60° C.): 99.96%
Total impurities (%) (Day 5, 60° C.): 0.04%
Water (%) (Day 5, 60° C.): 3.3%
Maximum single impurity (%) (Day 5, light irradiation): 0.051 (RRT: 0.93) %
Purity (%) (Day 5, light irradiation): 99.93%
Total impurities (%) (Day 5, light irradiation): 0.07%
Water (%) (Day 5, light irradiation): 3.1%
Maximum single impurity (%) (Day 5, relative humidity 75%): 0.021 (RRT: 1.22) %
Purity (%) (Day 5, relative humidity 75%): 99.98%
Total impurities (%) (Day 5, relative humidity 75%): 0.02%
Water (%) (Day 5, relative humidity 75%): 3.1%
Maximum single impurity (%) (Day 5, relative humidity 92.5%): 0.021 (RRT: 1.22) %
Purity (%) (Day 5, relative humidity 92.5%): 99.98%
Total impurities (%) (Day 5, relative humidity 92.5%): 0.02%
Water (%) (Day 5, relative humidity 92.5%): 3.2%
Maximum single impurity (%) (Day 10, 40° C.): 0.022 (RRT: 1.22) %
Purity (%) (Day 10, 40° C.): 99.98%
Total impurities (%) (Day 10, 40° C.): 0.02%
Water (%) (Day 10, 40° C.): 3.3%
Maximum single impurity (%) (Day 10, 60° C.): 0.020 (RRT: 1.22) %
Purity (%) (Day 10, 60° C.): 99.96%
Total impurities (%) (Day 10, 60° C.): 0.04%
Water (%) (Day 10, 60° C.): 3.3%
Maximum single impurity (%) (Day 10, light irradiation): 0.055 (RRT: 0.93) %
Purity (%) (Day 10, light irradiation): 99.91%
Total impurities (%) (Day 10, light irradiation): 0.09%
Water (%) (Day 10, light irradiation): 3.1%
Maximum single impurity (%) (Day 10, relative humidity 75%): 0.022 (RRT: 1.22) %
Purity (%) (Day 10, relative humidity 75%): 99.98%
Total impurities (%) (Day 10, relative humidity 75%): 0.02%
Water (%) (Day 10, relative humidity 75%): 3.1%
Maximum single impurity (%) [1]: 0.022 (RRT: 1.22) %
Purity (%) [1]: 99.98%
Total impurities (%) [1]: 0.02%
Water (%) [1]: 3.2%
Maximum single impurity (%) [2]: 0.022 (RRT: 1.22) %
Purity (%) [2]: 99.98%
Total impurities (%) [2]: 0.02%
Water (%) [2]: 3.2%
Compound: CCOc1cc2ncnc(Nc3ccc(F)c(Cl)c3)c2cc1NC(=O)/C=C/CN(C)C.Cc1ccc(S(=O)(=O)O)cc1 [crystal form α, (E)-N-(4-((3-chloro-4-fluorophenyl)amino)-7-ethoxyquinazolin-yl)-4-(dimethylamino)but-2-enamide (Neptinib) di-p-methylbenzene sulfonate 1.5 hydrate]
